Reference: ChEMBL document CHEMBL3046263, “Isolation, characterization, antibacterial, antihelminthic, and in silico studies of polyprenol from Kirganelia reticulata Baill” (2013)
In brackets after ≈: the same amount, converted by molar mass.

How the values were obtained:
Assay type in all cases: functional
Escherichia coli [1] = test: Antibacterial activity against Escherichia coli after 24 hr by microbroth dilution method
Salmonella typhi [2] = test: Antibacterial activity against Salmonella enterica subsp. enterica serovar Typhi assessed after 24 hr by microbroth dilution method
Pseudomonas aeruginosa [3] = test: Antibacterial activity against Pseudomonas aeruginosa after 24 hr by microbroth dilution method
Staphylococcus aureus [4] = test: Antibacterial activity against Staphylococcus aureus after 24 hr by microbroth dilution method
Escherichia coli [5] = test: Antibacterial activity against Escherichia coli assessed as diameter of growth inhibition zone at 100 mg/ml after 24 hr by agar well diffusion method; conditions: read-out: DIZ
Salmonella typhi [6] = test: Antibacterial activity against Salmonella enterica subsp. enterica serovar Typhi assessed as diameter of growth inhibition zone at 100 mg/ml after 24 hr by agar well diffusion method; conditions: read-out: DIZ
Pseudomonas aeruginosa [7] = test: Antibacterial activity against Pseudomonas aeruginosa assessed as diameter of growth inhibition zone at 100 mg/ml after 24 hr by agar well diffusion method; conditions: read-out: DIZ
Staphylococcus aureus [8] = test: Antibacterial activity against Staphylococcus aureus assessed as diameter of growth inhibition zone at 100 mg/ml after 24 hr by agar well diffusion method; conditions: read-out: DIZ
Metaphire posthuma [9] = test: Antihelminthic activity against Pheretima posthuma assessed as paralysis time at 50 mg/ml (reference value: 63.33 +/-0.87 min)
Metaphire posthuma [10] = test: Antihelminthic activity against Pheretima posthuma assessed as death time at 50 mg/ml (reference value: 198.33 +/-2.61 min)
Metaphire posthuma [11] = test: Antihelminthic activity against Pheretima posthuma assessed as paralysis time at 200 mg/ml (reference value: 63.33 +/-0.87 min)
Metaphire posthuma [12] = test: Antihelminthic activity against Pheretima posthuma assessed as paralysis time at 150 mg/ml (reference value: 63.33 +/-0.87 min)
Metaphire posthuma [13] = test: Antihelminthic activity against Pheretima posthuma assessed as paralysis time at 100 mg/ml (reference value: 63.33 +/-0.87 min)
Metaphire posthuma [14] = test: Antihelminthic activity against Pheretima posthuma assessed as death time at 200 mg/ml (reference value: 198.33 +/-2.61 min)
Metaphire posthuma [15] = test: Antihelminthic activity against Pheretima posthuma assessed as death time at 150 mg/ml (reference value: 198.33 +/-2.61 min)
Metaphire posthuma [16] = test: Antihelminthic activity against Pheretima posthuma assessed as death time at 100 mg/ml (reference value: 198.33 +/-2.61 min)

SMILES | MBC (Escherichia coli [1]) [µg/mL] | MBC (Salmonella typhi [2]) [µg/mL] | MIC (Salmonella typhi [2]) [µg/mL] | MBC (Pseudomonas aeruginosa [3]) [µg/mL] | MBC (Staphylococcus aureus [4]) [µg/mL] | zone of inhibition at 100000 µg/mL (Escherichia coli [5]) [mm] | zone of inhibition at 100000 µg/mL (Salmonella typhi [6]) [mm] | zone of inhibition at 100000 µg/mL (Pseudomonas aeruginosa [7]) [mm] | zone of inhibition at 100000 µg/mL (Staphylococcus aureus [8]) [mm] | Time (Metaphire posthuma [9]) [min] | Time (Metaphire posthuma [10]) [min] | Time (Metaphire posthuma [11]) [min] | Time (Metaphire posthuma [12]) [min] | Time (Metaphire posthuma [13]) [min] | MIC (Escherichia coli [1]) [µg/mL] | Time (Metaphire posthuma [14]) [min] | Time (Metaphire posthuma [15]) [min] | Time (Metaphire posthuma [16]) [min] | MIC (Pseudomonas aeruginosa [3]) [µg/mL] | MIC (Staphylococcus aureus [4]) [µg/mL]
O=C(O)c1cn(C2CC2)c2cc(N3CCNCC3)c(F)cc2c1=O [CIPROFLOXACIN] | 12.5 (≈ 37.7 µM) | 6.25 (≈ 18.9 µM) | 3.12 (≈ 9.43 µM) | 6.25 (≈ 18.9 µM) | 12.5 (≈ 37.7 µM) | 10.2 | 29 | 31.8 | 18.1 |  |  |  |  |  |  |  |  |  |  | 
C1CNCCN1.C1CNCCN1.C1CNCCN1.O.O=C(O)CC(O)(CC(=O)O)C(=O)O.O=C(O)CC(O)(CC(=O)O)C(=O)O [PIPERAZINE CITRATE] |  |  |  |  |  |  |  |  |  | 32.44 | 40.72 |  |  |  |  |  |  |  |  | 
C/C(=C/CC/C=C/CO)CC/C=C(/C)CC/C=C(\C)CO [POLYPRENOL] | 25 (≈ 85.5 µM) | 12.5 (≈ 42.7 µM) | 6.25 (≈ 21.4 µM) | 12.5 (≈ 42.7 µM) | 25 (≈ 85.5 µM) | 5.6 | 13.1 | 14.7 | 9.1 | 51.57 | 81.7 | 36.17 | 39.63 | 43.37 | 12.5 (≈ 42.7 µM) | 44.47 | 48.5 | 55.13 | 6.25 (≈ 21.4 µM) | 12.5 (≈ 42.7 µM)
